Source: ChEMBL document CHEMBL4507268 (2021)

Legend:
Conditions in all cases: Compound concentration 1.0 uM
[1] = molecular target: T1, Myosin light chain kinase (Homo sapiens) (UniProt Q32MK0)
T1 sequence (whole entry): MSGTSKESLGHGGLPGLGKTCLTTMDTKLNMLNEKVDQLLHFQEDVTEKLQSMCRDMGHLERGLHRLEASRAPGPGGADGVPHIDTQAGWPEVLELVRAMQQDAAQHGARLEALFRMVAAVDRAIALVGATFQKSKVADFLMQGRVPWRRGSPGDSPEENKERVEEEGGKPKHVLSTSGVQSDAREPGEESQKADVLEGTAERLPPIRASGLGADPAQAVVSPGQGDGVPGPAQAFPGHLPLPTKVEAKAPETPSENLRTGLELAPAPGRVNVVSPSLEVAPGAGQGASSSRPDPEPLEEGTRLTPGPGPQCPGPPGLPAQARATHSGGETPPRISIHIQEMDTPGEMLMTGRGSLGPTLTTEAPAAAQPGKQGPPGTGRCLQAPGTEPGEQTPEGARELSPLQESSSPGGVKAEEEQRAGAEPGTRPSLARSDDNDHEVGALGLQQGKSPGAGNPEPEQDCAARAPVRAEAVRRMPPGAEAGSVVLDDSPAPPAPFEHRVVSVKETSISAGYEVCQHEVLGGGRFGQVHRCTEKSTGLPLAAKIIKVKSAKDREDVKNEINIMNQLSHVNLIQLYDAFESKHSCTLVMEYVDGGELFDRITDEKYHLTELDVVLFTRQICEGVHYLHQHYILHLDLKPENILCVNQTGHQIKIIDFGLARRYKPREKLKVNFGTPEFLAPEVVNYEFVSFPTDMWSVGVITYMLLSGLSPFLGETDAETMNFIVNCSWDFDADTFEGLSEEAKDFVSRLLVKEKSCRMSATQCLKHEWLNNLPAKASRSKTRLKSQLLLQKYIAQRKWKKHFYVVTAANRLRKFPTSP

[2] = molecular target: T2, Mitogen-activated protein kinase kinase kinase kinase 3 (Homo sapiens) (UniProt Q8IVH8)
T2 sequence (whole entry): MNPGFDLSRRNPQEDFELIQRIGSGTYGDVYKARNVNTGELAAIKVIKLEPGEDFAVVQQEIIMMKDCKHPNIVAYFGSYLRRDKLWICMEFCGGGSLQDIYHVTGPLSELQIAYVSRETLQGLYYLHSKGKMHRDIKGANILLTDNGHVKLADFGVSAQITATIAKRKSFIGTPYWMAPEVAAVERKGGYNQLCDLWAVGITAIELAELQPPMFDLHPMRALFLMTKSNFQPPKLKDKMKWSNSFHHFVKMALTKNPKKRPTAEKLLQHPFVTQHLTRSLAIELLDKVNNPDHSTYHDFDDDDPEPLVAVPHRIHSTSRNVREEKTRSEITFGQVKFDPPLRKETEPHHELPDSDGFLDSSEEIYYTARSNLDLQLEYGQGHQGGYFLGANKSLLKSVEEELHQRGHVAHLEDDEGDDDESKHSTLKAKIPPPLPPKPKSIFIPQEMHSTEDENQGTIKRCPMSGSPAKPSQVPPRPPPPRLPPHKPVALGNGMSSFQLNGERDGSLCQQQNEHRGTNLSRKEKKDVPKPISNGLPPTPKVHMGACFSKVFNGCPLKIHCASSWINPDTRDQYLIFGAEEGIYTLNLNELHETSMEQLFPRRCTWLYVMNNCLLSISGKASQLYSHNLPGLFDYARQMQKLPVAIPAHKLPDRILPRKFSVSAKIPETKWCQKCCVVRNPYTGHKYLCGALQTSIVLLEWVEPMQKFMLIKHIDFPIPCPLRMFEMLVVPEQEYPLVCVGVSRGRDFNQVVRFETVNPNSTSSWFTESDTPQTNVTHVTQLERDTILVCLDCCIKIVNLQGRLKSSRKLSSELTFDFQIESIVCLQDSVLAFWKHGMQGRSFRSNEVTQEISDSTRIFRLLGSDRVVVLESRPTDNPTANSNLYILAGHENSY

[3] = molecular target: T3, Mitogen-activated protein kinase kinase kinase 5 (Homo sapiens) (UniProt Q99683)
T3 sequence (whole entry): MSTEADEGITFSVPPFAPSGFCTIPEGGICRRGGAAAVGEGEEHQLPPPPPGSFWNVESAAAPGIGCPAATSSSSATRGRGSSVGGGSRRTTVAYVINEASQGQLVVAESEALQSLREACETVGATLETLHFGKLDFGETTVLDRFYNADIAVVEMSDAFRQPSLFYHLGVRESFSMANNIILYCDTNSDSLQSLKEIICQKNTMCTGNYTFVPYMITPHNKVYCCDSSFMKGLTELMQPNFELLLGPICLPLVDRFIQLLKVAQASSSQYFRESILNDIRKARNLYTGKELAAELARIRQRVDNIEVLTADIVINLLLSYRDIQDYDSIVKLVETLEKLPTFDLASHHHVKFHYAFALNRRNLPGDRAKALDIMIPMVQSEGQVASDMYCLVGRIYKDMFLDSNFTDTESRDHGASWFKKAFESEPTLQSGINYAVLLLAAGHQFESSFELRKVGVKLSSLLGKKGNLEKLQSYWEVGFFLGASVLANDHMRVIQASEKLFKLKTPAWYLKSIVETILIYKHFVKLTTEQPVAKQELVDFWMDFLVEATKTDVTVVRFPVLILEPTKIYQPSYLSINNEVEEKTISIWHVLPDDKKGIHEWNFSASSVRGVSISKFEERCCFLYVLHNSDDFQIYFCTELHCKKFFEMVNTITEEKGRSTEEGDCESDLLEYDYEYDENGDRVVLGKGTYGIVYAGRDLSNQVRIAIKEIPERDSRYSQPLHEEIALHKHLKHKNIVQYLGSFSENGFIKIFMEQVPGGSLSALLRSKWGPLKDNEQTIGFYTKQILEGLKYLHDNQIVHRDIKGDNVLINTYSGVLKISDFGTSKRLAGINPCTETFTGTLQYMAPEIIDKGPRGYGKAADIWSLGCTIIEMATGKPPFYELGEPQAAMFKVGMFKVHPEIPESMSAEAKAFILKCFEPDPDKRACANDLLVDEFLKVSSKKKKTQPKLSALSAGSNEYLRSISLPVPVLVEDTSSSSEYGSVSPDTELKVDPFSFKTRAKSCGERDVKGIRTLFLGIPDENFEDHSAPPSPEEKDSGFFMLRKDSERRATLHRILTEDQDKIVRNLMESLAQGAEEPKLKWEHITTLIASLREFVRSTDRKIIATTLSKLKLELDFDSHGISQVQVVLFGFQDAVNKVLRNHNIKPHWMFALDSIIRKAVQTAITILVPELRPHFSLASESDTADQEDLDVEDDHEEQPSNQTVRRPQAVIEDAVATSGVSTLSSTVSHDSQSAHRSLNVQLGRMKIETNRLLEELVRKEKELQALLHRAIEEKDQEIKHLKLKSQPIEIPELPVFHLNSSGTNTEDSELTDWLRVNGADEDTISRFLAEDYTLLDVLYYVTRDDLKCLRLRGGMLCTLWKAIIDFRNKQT

Measured: % residual kinase activity

CN1CCN(c2cnc3c(C4CCN(C(=O)c5ccc(OC(F)(F)F)cc5N)CC4)ncnc3c2)CC1 [BAY-885]
inactive: [1] 107% | [2] 102% | [3] 99%
